Patent US8334000B2, “Anti-angiogenic extracts from pomegranate” (priority 2003, dated 2012)
Read-outs that look alike come from different tables or passages of the source.

How the values were obtained:
[1] = system: human placental vein discs; test: Human placental vein angiogenesis model (HPVAM): initiation and angiogenic index; assay type: cell-based; conditions: for inhibition at 0.01 % strength: 0.01% w/v
Excerpt: The Human Placental Vein Angiogenesis Model: Discarded human placentas were obtained anonymously with prior approval of an Institutional Review Board. The placental veins were dissected free from the placenta and adventitial tissue. The trimmed vein segment was opened longitudinally to produce a flat film of venous tissue of full thickness. Vein discs (2 mm diameter) were created with a sterile skin punch (Miltex Instrument Company, Inc.; Lake Success, N.Y.). The discs were placed into wells of a standard 96-well plate (Corning Inc., Corning, N.Y.). The vein disc harvest was completed within three hours of delivery to optimize endothelial cell viability. Vein discs from a single placenta were distributed equally among all treatment groups to ensure randomization. Each well was preloaded with a human thrombin solution (0.05 IU in 2.0 μl), and allowed to evaporate to dryness before use. All chemicals were purchased from Sigma Chemical Company (St. Louis, Mo.) unless otherwise indicated.
Following the placement of the 2 mm vein disc in the bottom of each thrombin-containing well, the disc was covered with 100 μl of a clot-forming medium, comprising 3 mg/ml fibrinogen and 0.5% Σ-amino caproic acid dissolved in Human Placental Vein Angiogenesis Media (HPVAM). HPVAM is made of Medium 199 (Vitrogen Corporation, Carlsbad, Calif.), an antibiotic/antimycotic solution (100 U/ml penicillin, 100 U/ml streptomycin sulfate, and 0.25 μg/ml amphotericin(3; Vitrogen Corporation), and endothelial growth medium (25%) (Vitrogen Corporation). The mixture was allowed to clot by incubating in 5% CO2, 95% air at 37° C. in a humidified incubator. After the medium-containing placental discs had clotted, the vein-containing clot was supplemented with 100 μl HPVAM containing 20% fetal bovine serum (Vitrogen Corporation). The total well volume was 200 μl.
Evaluation of Angiogenesis: Visual evaluation of all wells was performed at 20× or 40× magnification with a standardized reference grid by an unbiased observer using an inverted microscope. Every other day, discs were graded using two criteria: the initiation of sprouting vessels (initiation) and the degree of sprouting (angiogenic index). Initiation of an angiogenic response was defined as the development of three or more vessel sprouts around the periphery of the vein disc. Initiation occurred in 50-95% of the wells, usually 4 to 6 days after establishment of the clots. Initiation was expressed as the percent of the total wells plated that indicated an angiogenic response.
The angiogenic index (AI) was defined using a subjective visual rating system. Each disc was visually rated for the development of vessel sprouting in each of four quadrants. Each of the four quadrants for each disc was rated on a 0-4 scale, depending on the number of sprouts (density) and the length of sprouts. Scores for all four quadrants were summed to express the AI, a numerical rating that could range from 0 to 16. A score of zero indicated no vessel growth in any of the four quadrants, while a score of 16 indicated long, dense angiogenic vessel growth in all four quadrants. For most experiments, the AI was expressed as a mean plus/minus a standard error of the mean.
To separate the process of initiation from that of proliferation, the AI was analyzed both with zero AI data points and without zero AI data points. […] This lack of initiation could have been due either to the effect of the experimental compound, to the insensitivity of the vein disc to stimulation in the culture conditions, or to the vein disc not being viable. In previous experiments, we have shown that only a small percent, about 2 to 3%, of vein discs are not viable (data not shown). Thus, a graph of AI with zero AI data points indicates the complete angiogenic response of initiation and growth under the experimental conditions. However, a graph of AI without the zero AI data points indicates only growth of the vessels after initiation. […]

human fat tissue = test: Human fat tissue angiogenesis assay; assay type: cell-based; conditions: 0.01 M and 0.001 M, data not shown
Experimental: To test the angiogenic activity of plant extracts in another tissue, the refined fraction PUG100 was tested for its anti-angiogenic activity in human fat tissue taken from patients having gastric bypass surgery (Vista Surgical Hospital, Baton Rouge, La.). The human fat tissue assay was conducted very similar to that described in Example 1 for human placental vein tissue. […] (FIG. 25a). Immediately after the addition of the refined fraction PUG100, angiogenic vessel growth started to diverge. The control wells continued their growth, but the PUG100 treated wells stopped further growth. […] (Data not shown).

[2] = 5% gallic acid, oral, 13 wks; cited from earlier work
[3] = Homo sapiens, 336 h, 14 days in culture, FIG. 12a, read-out: inhibition of angiogenic initiation compared to the control
[4] = Homo sapiens, FIG. 12b, read-out: inhibition of angiogenesis compared with the control (mean AI with the zero points)
[5] = Homo sapiens, FIG. 12b, read-out: inhibition of angiogenic growth compared with the control (mean AI without the zero points)
[6] = highest concentration tested (2×10^−2M; octyl gallate 2×10^−3 M), FIG. 13a

## CCCCOC(=O)c1cc(O)c(O)c(O)c1 [butyl gallate]
[1]; [3]
  inhibition at 0.01 % strength: 85%
[1]; [4]
  inhibition at 0.01 % strength: 96%
[1]; [5]
  inhibition at 0.01 % strength: 74%
[1]; [6]
  initiation of angiogenesis: totally blocked

## O=C(O)c1cc(O)c(O)c(O)c1 [gallic acid, 3,4,5-trihydroxy benzoic acid]
Human fat tissue
  initiation of angiogenesis: inhibited initiation of angiogenesis
[1]; 0.025%, added after six days, FIG. 5a
  initiation of angiogenesis: totally inhibited
[1]; 10^−3 M, FIG. 6a
  initiation of angiogenesis: totally inhibited
[1]; 10^−3 M, FIG. 6b
  mean AI with the zero points included (initiation and proliferation): totally inhibited angiogenesis
[1]; 10^−4 M, FIG. 6a
  Percent initiation: 56%
[1]; 10^−5 M, FIG. 6a
  Percent initiation: 50%
[1]; FIG. 6b
  concentrations at which the inhibitory effect stopped (mean AI with zero points): ≤ 10^−6 M
[1]; FIG. 6c
  concentrations that showed inhibition (mean AI without the zero points, proliferation only): greater than 10^−4 M
[1]; Homo sapiens, read-out: estimated inhibition (IC19) if gallic acid were the only active compound, 2.5×10^−5 M
  inhibition at 25 µM: 19%
[1]; [6]
  initiation of angiogenesis: totally blocked
[1]; up to 10^−10 M, FIG. 6a
  Percent initiation: 33%
[2]
  body weight gain: suppress body weight gain

## COC(=O)c1cc(O)c(O)c(O)c1 [methyl gallate]
[1]; [3]
  inhibition at 0.01 % strength: 38%
[1]; [4]
  inhibition at 0.01 % strength: 71%
[1]; [5]
  inhibition at 0.01 % strength: 52%

## CCCCCCCCOC(=O)c1cc(O)c(O)c(O)c1 [octyl gallate]
[1]
  lowest concentration indicating inhibition of angiogenesis: 200 µM
[1]; 2×10^−4 M, FIG. 13a
  initiation of angiogenesis: totally blocked
[1]; 2×10^−4 M, FIG. 13b
  mean AI with the zero points included (initiation and proliferation): effective
[1]; [3]
  inhibition at 0.01 % strength: 85%
[1]; [4]
  inhibition at 0.01 % strength: 97%
[1]; [5]
  inhibition at 0.01 % strength: 83%
[1]; [6]
  initiation of angiogenesis: totally blocked

## CCCOC(=O)c1cc(O)c(O)c(O)c1 [propyl gallate]
[1]; [3]
  inhibition at 0.01 % strength: 46%
[1]; [4]
  inhibition at 0.01 % strength: 61%
[1]; [5]
  inhibition at 0.01 % strength: 28%

## O=C(OC[C@H]1O[C@@H](OC(=O)c2cc(O)c(O)c(OC(=O)c3cc(O)c(O)c(O)c3)c2)[C@H](OC(=O)c2cc(O)c(O)c(OC(=O)c3cc(O)c(O)c(O)c3)c2)[C@@H](OC(=O)c2cc(O)c(O)c(OC(=O)c3cc(O)c(O)c(O)c3)c2)[C@@H]1OC(=O)c1cc(O)c(O)c(OC(=O)c2cc(O)c(O)c(O)c2)c1)c1cc(O)c(O)c(OC(=O)c2cc(O)c(O)c(O)c2)c1 [tannic acid, Tannic acid]
[1]; 0.1% in HPVAM, FIG. 8a
  initiation of angiogenesis: inhibited the initiation of angiogenesis even better than the positive heparin-steroid control
